Experimental data taken from publication PMC10600239, “Selective MCL-1 inhibitor ABBV-467 is efficacious in tumor models but is associated with cardiac troponin increases in patients” (Communications Medicine, 2023).

System: AMO-1 xenografts
Assay: AMO-1 xenograft efficacy (tumor volume, body weight)
Type: in vivo, mouse
Conditions: SCID-beige mice bearing AMO-1 (DSMZ) flank xenografts; IV, Q7Dx2, 6.25-25 mg/kg; 5% DMSO, 10% cremophor EL, 85% D5W
Method: All animal studies were conducted in accordance with the guidelines approved by the Institutional Animal Care and Use Committees of AbbVie. The research protocol was approved by In Vivo Pharmacology at AbbVie prior to study initiation but was not publicly registered or disclosed. Female C.B-17 SCID-beige mice (AMO-1, OPM-2, NCI-H929, and OCI-AML2 xenografts) and female NSG mice (MV4-11-Red.Fluc systemic) were purchased from Charles River Laboratories (Wilmington, MA). Animals were housed in a light cycle-controlled room with HEPA filtration at 22 °C. Animals had nesting and climbing cage topper as the primary environmental enrichment. Animals were inoculated subcutaneously in the right flank with 5 × 10^6 (AMO-1, OPM-2, NCI-H929, and OCI-AML2) or intravenous (IV) with 5 × 10^6 (MV4-11-Red.Fluc). The inoculation volume (0.2 mL) comprised a 50:50 mixture of cells in growth media and Matrigel (BD Biosciences) for subcutaneous injections and 100% phosphate-buffered saline for IV administration. All cell lines used in this publication were authenticated using IDEXX for STR profiling as well as their IMPACT and human IMPACT panels for pathogen screening. Electronic calipers were used to measure the length and width of each tumor 2 to 3 times per week. Tumor volume was estimated by applying the following equation: volume = length × width^2/2. All groups remained blinded during measurements and dosing; only veterinary staff were aware of group identity. When tumors reached approximately 200 mm^3, mice were randomized by match and distributed into treatment and control groups. All xenograft trials were conducted using 5 to 10 mice per group, and all mice were ear tagged and monitored individually throughout the studies. […] Tumor burden in the systemic MV4-11-Red.Fluc experiment was measured using an IVIS® spectrum from PerkinElmer by taking the total photon flux of the entire dorsal side of an individual mouse. […] A background control mouse that was tumor naive but received D-Luciferin was placed in the upper left corner of each image. The total flux from this animal was subtracted from the total flux of each animal present in the image.
For in vivo studies, maximal tumor growth inhibition (TGI) was calculated as the greatest treatment response using the following equation: Maximal TGI = (1 − mean tumor volume of the treated group/mean tumor volume of the vehicle control group) × 100. The tumor growth delay (TGD) percentage was determined as the percentage increase of the median time period for the treatment group to reach an arbitrary tumor volume of 1000 mm^3 relative to the vehicle control group. […] A power analysis was conducted using historical data to determine the number of animals required to yield significance of 0.05 at a 30% difference. […] Data from experiments in vivo were analyzed using the student’s t-test for TGI values and the Mann–Whitney U test for TGD using Excel and GraphPad Prism. Fisher’s exact test was used to probe significance of differences in response frequency.

Cc1c(Cl)c2c(Cl)c(C)c1-c1c(-c3ccc(F)cc3)sc3ncnc(c13)O[C@@H](C(=O)O)Cc1cc(ccc1OCc1ccnc(-c3ccc(OC[C@H]4COCCO4)cc3)n1)OC[C@@H](CN1CCN(C)CC1)O2 [Compound A-1747745]
Results: toxicity following iv injection: A-1747745 and A-1746463 showed lethal toxicity due to drug precipitate folowing iv injection.
